From patent publication US11813277B2, “Methods and agents for modulating inflammation” (The Regents of the University of California, priority 2018, dated 2023) come the findings set out here.

This assay deals with isolated rat liver mitochondria. Nature of the assay: ADP- vs FCCP-stimulated respiration in isolated liver mitochondria. Conditions: high etomoxir (100 μM), pyruvate/malate. It counts as biochemical. The procedure: Mouse liver mitochondria were isolated according to standard techniques (Rogers, G. W., Brand, M. D., Petrosyan, S., Ashok, D., Elorza, A. A., Ferrick, D. A., and Murphy, A. N. (2011) High throughput microplate respiratory measurements using minimal quantities of isolated mitochondria. PLoS One. 6, e21746). The liver from a male mouse was minced and rinsed several times in MSHE [70 mM sucrose, 210 mM mannitol, 5 mM HEPES (pH 7.2), and 1 mM EGTA with 0.5% (w/v) fatty acid-free BSA] to remove blood. Tissue was disrupted using a drill-driven Teflon-on-glass Dounce homogenizer (between 2-4 strokes). The homogenate was centrifuged at 800 g for 10 min and the supernatant was filtered through cheesecloth and centrifuged at 8000 g for 10 min. […]
Phosphorylating respiration was measured in isolated liver mitochondria (1.5 μg/well) as previously described (Rogers, G. W., Brand, M. D., Petrosyan, S., Ashok, D., Elorza, A. A., Ferrick, D. A., and Murphy, A. N. (2011) High throughput microplate respiratory measurements using minimal quantities of isolated mitochondria. PLoS One. 6, e21746), and offered 10 mM pyruvate, 1 mM malate, and 4 mM ADP. Uncoupler stimulated respiration was measured after addition of oligomycin (3 ng/mg mitochondrial protein) and FCCP (4 μM). […]

As to `CCOC(=O)[C@@]1(CCCCCCOc2ccc(Cl)cc2)CO1` [etomoxir], the “respiration driven by ADP versus FCCP” value is given as “greater inhibitory effect on respiration driven by ADP versus FCCP”.
